From ChEMBL document CHEMBL1201862, “PubChem BioAssay data set” (2004)
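Five concentrations, 48 hours, 96-well plates. At the GI50, growth is halved.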 The source made the active and inactive calls. Rule as the data show it: active = GI50 up to about 1.1 µM and inactive = higher.

Tests used:
Assay in all cases: NCI anticancer screen, dose series, 48 h
786-0 = tested on: 786-0
A498 = tested on: A498
A549 = tested on: A549
ACHN = tested on: ACHN
CAKI-1 = tested on: CAKI-1
CCRF-CEM = tested on: CCRF-CEM
COLO 205 = tested on: COLO 205
DU-145 = tested on: DU-145
HCC 2998 = tested on: HCC 2998
HCT-116 = tested on: HCT-116
HCT-15 = tested on: HCT-15
HOP-62 = tested on: HOP-62
HT-29 = tested on: HT-29
Hs-578T = tested on: Hs-578T
K562 = tested on: K562
KM12 = tested on: KM12
LOX IMVI = tested on: LOX IMVI
M14 = tested on: M14
MDA-MB-231 = tested on: MDA-MB-231
MDA-MB-435 = tested on: MDA-MB-435
MDA-N = tested on: MDA-N
MOLT-4 = tested on: MOLT-4
NCI-H226 = tested on: NCI-H226
NCI-H23 = tested on: NCI-H23
NCI-H460 = tested on: NCI-H460
NCI-H522 = tested on: NCI-H522
NCI/ADR-RES = tested on: NCI/ADR-RES
OVCAR-3 = tested on: OVCAR-3
OVCAR-4 = tested on: OVCAR-4
OVCAR-5 = tested on: OVCAR-5
OVCAR-8 = tested on: OVCAR-8
PC-3 = tested on: PC-3
SF-268 = tested on: SF-268
SF-295 = tested on: SF-295
SK-MEL-28 = tested on: SK-MEL-28
SK-MEL-2 = tested on: SK-MEL-2
SK-MEL-5 = tested on: SK-MEL-5
SK-OV-3 = tested on: SK-OV-3
SN12C = tested on: SN12C
SNB-19 = tested on: SNB-19
SNB-75 = tested on: SNB-75
SR = tested on: SR
SW-620 = tested on: SW-620
T47D = tested on: T47D
TK-10 = tested on: TK-10
U-251 = tested on: U-251
UACC-257 = tested on: UACC-257
UACC-62 = tested on: UACC-62
UO-31 = tested on: UO-31

C=CC[C@@H]1C(=O)[C@@]2(O[Si](C(C)C)(C(C)C)C(C)C)CC[C@@H]1C[C@H]2NC(=O)OCC(Cl)(Cl)Cl
GI50 (786-0): 77.1 µM (inactive) | GI50 (A498): > 100 µM (inactive) | GI50 (A549): > 100 µM (inactive) | GI50 (ACHN): 73.8 µM (inactive) | GI50 (CAKI-1): 59.2 µM (inactive) | GI50 (CCRF-CEM): 60 µM (inactive) | GI50 (COLO 205): > 100 µM (inactive) | GI50 (DU-145): > 100 µM (inactive) | GI50 (HCC 2998): 43.2 µM (inactive) | GI50 (HCT-116): 27.9 µM (inactive) | GI50 (HCT-15): 91.6 µM | GI50 (HOP-62): > 100 µM (inactive) | GI50 (HT-29): > 100 µM (inactive) | GI50 (Hs-578T): > 100 µM (inactive) | GI50 (K562): 61.8 µM (inactive) | GI50 (KM12): > 100 µM (inactive) | GI50 (LOX IMVI): 41.5 µM (inactive) | GI50 (M14): > 100 µM (inactive) | GI50 (MDA-MB-231): > 10 µM (inactive) | GI50 (MDA-MB-435): > 100 µM (inactive) | GI50 (MDA-N): 77.1 µM (inactive) | GI50 (MOLT-4): > 100 µM (inactive) | GI50 (NCI-H226): > 100 µM (inactive) | GI50 (NCI-H23): > 100 µM (inactive) | GI50 (NCI-H460): 35.5 µM (inactive) | GI50 (NCI-H522): < 0.01 µM (active) | GI50 (NCI/ADR-RES): > 100 µM (inactive) | GI50 (OVCAR-3): 90.8 µM (inactive) | GI50 (OVCAR-4): > 100 µM (inactive) | GI50 (OVCAR-5): > 100 µM (inactive) | GI50 (OVCAR-8): > 100 µM (inactive) | GI50 (PC-3): 32.9 µM (inactive) | GI50 (SF-268): > 100 µM (inactive) | GI50 (SF-295): 5.35 µM (inactive) | GI50 (SK-MEL-28): > 100 µM (inactive) | GI50 (SK-MEL-2): 60 µM (inactive) | GI50 (SK-MEL-5): > 100 µM (inactive) | GI50 (SK-OV-3): > 100 µM (inactive) | GI50 (SN12C): 45.3 µM (inactive) | GI50 (SNB-19): > 100 µM (inactive) | GI50 (SNB-75): > 100 µM (inactive) | GI50 (SR): 35.4 µM (inactive) | GI50 (SW-620): > 100 µM (inactive) | GI50 (T47D): > 100 µM (inactive) | GI50 (TK-10): > 100 µM (inactive) | GI50 (U-251): > 100 µM (inactive) | GI50 (UACC-257): 43.8 µM (inactive) | GI50 (UACC-62): > 100 µM (inactive) | GI50 (UO-31): 56.5 µM (inactive)
